Reference: PubChem BioAssay AID1963975 (Molecular Pharmacology Branch, DTP, NCI, 2024)

Tested on: 624824-186-R-J2-PDC multicell spheroids, viability
Assay: Anticancer human tumor 624824-186-R-J2-PDC patient-derived colon adenocarcinoma cell line growth inhibition [PI3K]
Details: for IC50: curve of first compound; for viability, T/C: stronger effect = lower value
Excerpt: Combinatorial screen of targeted agents with the PI3K inhibitors inavolisib, alpelisib, duvelisib, and copanlisib in multi-cell type tumor spheroids
A high-throughput screen of multi-cell type tumor spheroids was designed to identify active combinations of targeted small molecules and PI3K pathway inhibitors. Complex spheroids include a stromal component modeled by human endothelial cells (HUVEC) and fibroblasts modeled by human mesenchymal stem cells (MSCs). The concentration ranges selected for each drug and investigational agent were based upon clinically achievable concentrations if the clinical Cmax of the agent was known.
Compounds. The drugs and investigational agents: inavolisib (NSC800729), alpelisib (NSC765974), duvelisib (NSC772469), copanlisib (NSC816437), ipatasertib (NSC767898), afuresertib (NSC778305), talazoparib (NSC767125), sapanisertib (NSC764658), selumetinib (NSC741078), tovorafenib (DAY101, NSC766906), vemurafenib (NSC761431), ravoxertinib (NSC781343), sotorasib (NSC818433), MRTX1133 (NSC 836407), abemaciclib (NSC 768073), palbociclib (NSC758247), venetoclax (NSC 766270), SY5609 (NSC837396), enzalutamide (NSC755605), and darolutamide (NSC825331), were obtained from the National Cancer Institute (NCI) Developmental Therapeutics Program Chemical Repository. The FDA-approved anticancer drug set is available from the NCI Developmental Therapeutics Program. […] The stock solutions were prepared in dimethyl sulfoxide (DMSO, Sigma-Aldrich, St. Louis, MO, cat. D2650) at 800-fold the tested concentration and stored at -70 degrees C prior to their use. All drugs and investigational agents were tested over a range starting from a high concentration at or near the clinical Cmax and decreasing in half-log increments. If the clinical Cmax for an agent had not been determined, the highest concentration tested was 10 microM.
Cell Culture. All cells were maintained in an incubator at 37 degrees C and 5% CO2 with 95% humidity. The PDC lines were cultured according to standard operating procedures established by the NCI PDMR (https://pdmr.cancer.gov/sops/default.htm). All PDCs were thawed and cultured in Matrigel-coated flasks prepared with a working solution of 1X Ham's F-12 nutrient mix, without supplementation (Invitrogen, Waltham, MA, cat. 11765054), 100 U/mL penicillin-streptomycin (Invitrogen, cat. 15140122), and 2.5% Matrigel (Corning Inc., Corning, NY, cat. 354248) for the first three passages. The 354836-022-R-J1-PDC, 475296-252-R-J1-PDC, and 997726-040-R-J2-PDC lines were cultured in 6A media, which includes advanced DMEM/F-12 (Thermo Fisher Scientific, cat. 12634028), 10 mM HEPES (Thermo Fisher Scientific, cat. 15630080), 1X GlutaMAX supplement (Thermo Fisher Scientific, cat. 35050061), 0.1 mg/mL primocin (InvivoGen, San Diego, CA, cat. ant-pm-2), 10% defined fetal bovine serum, heat inactivated (HyClone Laboratories Inc., Logan, UT, cat. SH30070.03HI), 50% L-WRN conditioned media (ATCC, cat. CRL-3276), 1.25 mM N-Acetyl-L-cysteine (Sigma-Aldrich, cat. A9165), 10 mM nicotinamide (Sigma-Aldrich, cat. N0636), 1X B-27 supplement (Thermo Fisher Scientific, cat. 17504044), 1X N-2 supplement (Thermo Fisher Scientific, cat. 17502048), and 10 microM Y-27632 dihydrochloride (Tocris Bioscience, Bristol, United Kingdom, cat. 1254). The 624824-186-R-J2-PDC line was cultured in 6C/Colon 1B media, which includes all 6A media components plus 50 ng/mL human EGF recombinant protein (Thermo Fisher Scientific, cat. PHG0311). […]
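Also: spheroids exposed to agents for 7 days before viability read.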
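For viability, T/C in this document: 100% = DMSO vehicle treated spheroids.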

Cn1ncnc1[C@H]1c2n[nH]c(=O)c3cc(F)cc(c23)N[C@@H]1c1ccc(F)cc1 + COc1c(OCCCN2CCOCC2)ccc2c3n(c(=NC(=O)c4cnc(N)nc4)nc12)CCN3
IC50 (second compound 0.00316 µM): > 100 nM
IC50 (second compound 0.01 µM): > 100 nM
IC50 (second compound 0.0316 µM): > 100 nM
IC50 (second compound 0.1 µM): > 100 nM
IC50 (second compound 0.316 µM): > 100 nM
IC50 (second compound 1 µM): > 100 nM
viability, T/C (second compound 0.00316 µM, first compound 0.000316 µM): 93.9%
viability, T/C (second compound 0.00316 µM, first compound 0.001 µM): 83.3%
viability, T/C (second compound 0.00316 µM, first compound 0.00316 µM): 96.7%
viability, T/C (second compound 0.00316 µM, first compound 0.01 µM): 72%
viability, T/C (second compound 0.00316 µM, first compound 0.0316 µM): 88.8%
viability, T/C (second compound 0.00316 µM, first compound 0.1 µM): 78.4%
viability, T/C (second compound 0.01 µM, first compound 0.000316 µM): 94.2%
viability, T/C (second compound 0.01 µM, first compound 0.001 µM): 81.2%
viability, T/C (second compound 0.01 µM, first compound 0.00316 µM): 79.8%
viability, T/C (second compound 0.01 µM, first compound 0.01 µM): 84.5%
viability, T/C (second compound 0.01 µM, first compound 0.0316 µM): 93.3%
viability, T/C (second compound 0.01 µM, first compound 0.1 µM): 77.7%
viability, T/C (second compound 0.0316 µM, first compound 0.000316 µM): 90.2%
viability, T/C (second compound 0.0316 µM, first compound 0.001 µM): 81.9%
viability, T/C (second compound 0.0316 µM, first compound 0.00316 µM): 84.1%
viability, T/C (second compound 0.0316 µM, first compound 0.01 µM): 83.1%
viability, T/C (second compound 0.0316 µM, first compound 0.0316 µM): 88%
viability, T/C (second compound 0.0316 µM, first compound 0.1 µM): 95.6%
viability, T/C (second compound 0.1 µM, first compound 0.000316 µM): 72.2%
viability, T/C (second compound 0.1 µM, first compound 0.001 µM): 77.4%
viability, T/C (second compound 0.1 µM, first compound 0.00316 µM): 70.6%
viability, T/C (second compound 0.1 µM, first compound 0.01 µM): 73.7%
viability, T/C (second compound 0.1 µM, first compound 0.0316 µM): 84.9%
viability, T/C (second compound 0.1 µM, first compound 0.1 µM): 76.8%
viability, T/C (second compound 0.316 µM, first compound 0.000316 µM): 71.1%
viability, T/C (second compound 0.316 µM, first compound 0.001 µM): 65.2%
viability, T/C (second compound 0.316 µM, first compound 0.00316 µM): 61.7%
viability, T/C (second compound 0.316 µM, first compound 0.01 µM): 62.6%
viability, T/C (second compound 0.316 µM, first compound 0.0316 µM): 76.3%
viability, T/C (second compound 0.316 µM, first compound 0.1 µM): 60.9%
viability, T/C (second compound 1 µM, first compound 0.000316 µM): 55.7%
viability, T/C (second compound 1 µM, first compound 0.001 µM): 50.2%
viability, T/C (second compound 1 µM, first compound 0.00316 µM): 55.9%
viability, T/C (second compound 1 µM, first compound 0.01 µM): 56.6%
viability, T/C (second compound 1 µM, first compound 0.0316 µM): 63.6%
viability, T/C (second compound 1 µM, first compound 0.1 µM): 60.8%
